Laboratory results as given in patent US20230123334A1, “AMINO LIPID COMPOUND, PREPARATION METHOD THEREFOR, AND APPLICATION THEREOF” (SHENZHEN SHENXIN BIOTECHNOLOGY CO., LTD., priority 2020, published 2023).

test system: HEK293 cells; test: Preliminary screening as mRNA vectors, EGFP mRNA transfection of HEK293 cells; type: cell-based; details: EGFP mRNA 50 ng per well, 96-well plates; percentage of GFP fluorescent cells relative to total number of cells (Hoechst)
In short: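 Each well of HEK293 cells received 50 ng of EGFP mRNA. Efficiency was expressed as percent GFP-expressing cells over Hoechst-defined total cell number.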

Row | SMILES | Absolute mRNA transfection efficiency in HEK293 cells [%]
1 | CCCCCCCCCCCCCCCNc1nc(NCCN(CC)CC)nc(SCCCCCCCCCCCCCC)n1 [Compound D7S14N15] | 0.8
2 | CCCCCCCCCCCCCCCCNc1nc(NCCN(CC)CC)nc(SCCCCCCCCCCCCCC)n1 [Compound D7S14N16] | 2.7
3 | CCCCCCCCCCCCCCCCCCNc1nc(NCCN(CC)CC)nc(SCCCCCCCCCCCCCC)n1 [Compound D7S14N18] | 0.4
4 | CCCCCCCCCCCCCCCSc1nc(NCCCCCC)nc(NCCN(CC)CC)n1 [Compound D7S15N6] | 2.7
5 | CCCCCCCCCCCCCCCSc1nc(NCCCCCCC)nc(NCCN(CC)CC)n1 [Compound D7S15N7] | 27.8
6 | CCCCCCCCCCCCCCCSc1nc(NCCCCCCCC)nc(NCCN(CC)CC)n1 [Compound D7S15N8] | 18.0
7 | CCCCCCCCCCCCCCCSc1nc(NCCCCCCCCC)nc(NCCN(CC)CC)n1 [Compound D7S15N9] | 9.4
8 | CCCCCCCCCCCCCCCSc1nc(NCCCCCCCCCCC)nc(NCCN(CC)CC)n1 [Compound D7S15N11] | 5.0
9 | CCCCCCCCCCCCCCCSc1nc(NCCCCCCCCCCCC)nc(NCCN(CC)CC)n1 [Compound D7S15N12] | 4.7
10 | CCCCCCCCCCCCCCCSc1nc(NCCCCCCCCCCCCC)nc(NCCN(CC)CC)n1 [Compound D7S15N13] | 5.2
11 | CCCCCCCCCCCCCCCNc1nc(NCCN(CC)CC)nc(SCCCCCCCCCCCCCCC)n1 [Compound D7S15N15] | 1.8
12 | CCCCCCCCCCCCCCCCNc1nc(NCCN(CC)CC)nc(SCCCCCCCCCCCCCCC)n1 [Compound D7S15N16] | 0.5
13 | CCCCCCCCCCCCCCCCCCNc1nc(NCCN(CC)CC)nc(SCCCCCCCCCCCCCCC)n1 [Compound D7S15N18] | 0.8
14 | CCCCCCCCCCCCCCCCSc1nc(NCCCCCC)nc(NCCN(CC)CC)n1 [Compound D7S16N6] | 16.5
15 | CCCCCCCCCCCCCCCCSc1nc(NCCCCCCC)nc(NCCN(CC)CC)n1 [Compound D7S16N7] | 7.8
16 | CCCCCCCCCCCCCCCCSc1nc(NCCCCCCCC)nc(NCCN(CC)CC)n1 [Compound D7S16N8] | 6.5
17 | CCCCCCCCCCCCCCCCSc1nc(NCCCCCCCCC)nc(NCCN(CC)CC)n1 [Compound D7S16N9] | 9.0
18 | CCCCCCCCCCCCCCCCSc1nc(NCCCCCCCCCCC)nc(NCCN(CC)CC)n1 [Compound D7S16N11] | 8.3
19 | CCCCCCCCCCCCCCCCSc1nc(NCCCCCCCCCCCC)nc(NCCN(CC)CC)n1 [Compound D7S16N12] | 1.3
20 | CCCCCCCCCCCCCCCCSc1nc(NCCCCCCCCCCCCC)nc(NCCN(CC)CC)n1 [Compound D7S16N13] | 2.9
21 | CCCCCCCCCCCCCCCCSc1nc(NCCCCCCCCCCCCCCC)nc(NCCN(CC)CC)n1 [Compound D7S16N15] | 1.1
22 | CCCCCCCCCCCCCCCCNc1nc(NCCN(CC)CC)nc(SCCCCCCCCCCCCCCCC)n1 [Compound D7S16N16] | 1.6
23 | CCCCCCCCCCCCCCCCCCNc1nc(NCCN(CC)CC)nc(SCCCCCCCCCCCCCCCC)n1 [Compound D7S16N18] | 1.5
24 | CCCCCCCCCCCCCCCCCCSc1nc(NCCCCCC)nc(NCCN(CC)CC)n1 [Compound D7S18N6] | 19.5
25 | CCCCCCCCCCCCCCCCCCSc1nc(NCCCCCCC)nc(NCCN(CC)CC)n1 [Compound D7S18N7] | 6.5

Row | SMILES | Absolute mRNA transfection efficiency in HEK293 cells [%]
26 | CCCCCCCCCCCCCCCCCCSc1nc(NCCCCCCCC)nc(NCCN(CC)CC)n1 [Compound D7S18N8] | 9.8
27 | CCCCCCCCCCCCCCCCCCSc1nc(NCCCCCCCCC)nc(NCCN(CC)CC)n1 [Compound D7S18N9] | 1.9
28 | CCCCCCCCCCCCCCCCCCSc1nc(NCCCCCCCCCCC)nc(NCCN(CC)CC)n1 [Compound D7S18N11] | 10.7
29 | CCCCCCCCCCCCCCCCCCSc1nc(NCCCCCCCCCCCC)nc(NCCN(CC)CC)n1 [Compound D7S18N12] | 0.3
30 | CCCCCCCCCCCCCCCCCCSc1nc(NCCCCCCCCCCCCC)nc(NCCN(CC)CC)n1 [Compound D7S18N13] | 1.5
31 | CCCCCCCCCCCCCCCCCCSc1nc(NCCCCCCCCCCCCCCC)nc(NCCN(CC)CC)n1 [Compound D7S18N15] | 0.3
32 | CCCCCCCCCCCCCCCCCCSc1nc(NCCCCCCCCCCCCCCCC)nc(NCCN(CC)CC)n1 [Compound D7S18N16] | 0.3
33 | CCCCCCCCCCCCCCCCCCNc1nc(NCCN(CC)CC)nc(SCCCCCCCCCCCCCCCCCC)n1 [Compound D7S18N18] | 0.0
34 | CCCCCCNc1nc(NCCCN2CCOCC2)nc(SCCCCCC)n1 [Compound D8S6N6] | 0.0
35 | CCCCCCCNc1nc(NCCCN2CCOCC2)nc(SCCCCCC)n1 [Compound D8S6N7] | 0.4
36 | CCCCCCCCNc1nc(NCCCN2CCOCC2)nc(SCCCCCC)n1 [Compound D8S6N8] | 0.2
37 | CCCCCCCCCNc1nc(NCCCN2CCOCC2)nc(SCCCCCC)n1 [Compound D8S6N9] | 1.2
38 | CCCCCCCCCCCNc1nc(NCCCN2CCOCC2)nc(SCCCCCC)n1 [Compound D8S6N11] | 1.1
39 | CCCCCCCCCCCCNc1nc(NCCCN2CCOCC2)nc(SCCCCCC)n1 [Compound D8S6N12] | 2.0
40 | CCCCCCCCCCCCCNc1nc(NCCCN2CCOCC2)nc(SCCCCCC)n1 [Compound D8S6N13] | 0.0
41 | CCCCCCCCCCCCCCCNc1nc(NCCCN2CCOCC2)nc(SCCCCCC)n1 [Compound D8S6N15] | 0.1
42 | CCCCCCCCCCCCCCCCNc1nc(NCCCN2CCOCC2)nc(SCCCCCC)n1 [Compound D8S6N16] | 0.6
43 | CCCCCCCCCCCCCCCCCCNc1nc(NCCCN2CCOCC2)nc(SCCCCCC)n1 [Compound D8S6N18] | 0.7
44 | CCCCCCSc1nc(NCCCN2CCOCC2)nc(SCCCCCC)n1 [Compound D8S6S6] | 0.0
45 | CCCCCCCSc1nc(NCCCN2CCOCC2)nc(SCCCCCC)n1 [Compound D8S6S7] | 1.5
46 | CCCCCCCCSc1nc(NCCCN2CCOCC2)nc(SCCCCCC)n1 [Compound D8S6S8] | 0.2
47 | CCCCCCCCCSc1nc(NCCCN2CCOCC2)nc(SCCCCCC)n1 [Compound D8S6S9] | 5.0
48 | CCCCCCCCCCSc1nc(NCCCN2CCOCC2)nc(SCCCCCC)n1 [Compound D8S6S10] | 4.2
49 | CCCCCCCCCCCSc1nc(NCCCN2CCOCC2)nc(SCCCCCC)n1 [Compound D8S6S11] | 1.5
